Here are results for 2 compounds from US12029682B2, “Spray ejector mechanisms and devices providing charge isolation and controllable droplet charge, and low dosage volume ophthalmic administration” (EYENOVIA, INC., priority 2012, dated 2024).

Some results are limits rather than exact numbers.

Data set [1] concerns glaucomatous beagles. Kind of data set: Pupil diameter (PD), Jameson Caliper, in glaucomatous beagles. In kind it is in vivo, beagle dog. The following applies: for PD: spray ejector device, one dog. The procedure: (§1) One glaucomatous beagle dog (female, aged 3 years) from the University of Florida MacKay Colony of Glaucomatous Beagles was chosen for this study. The animal was rested a minimum of one week before starting the study. Prior to the commencement of the study, the animal was assigned one eye to receive 1.5 μl of 0.005% latanoprost and the contralateral eye to remain untreated as a control. The basic measurement protocol was followed at all times and performed by the same operator. PD was measured via Jameson Caliper (mm horizontally). IOP was measured using a TonoVet instrument with clean probe (iCare). IOP and PD were measured at time 0, 1, 2, 4, 7 and 18 hours daily for two days. Immediately after the time 0 measurement, the animal received 1.5 μl of 0.005% latanoprost in its assigned eye with a spray device. The contralateral eye was left untreated. The spray device was checked for accuracy before and after every use, and required a 10% delivered dose accuracy in pretreatment. Standard measurements continued throughout each day at time 1, 2, 4, 7 and 18 hours. Possible endpoints included, but were not limited to, excessive ocular irritation, ocular damage, and other illness or injury. No statistical crossover was utilized for this study.
as §1, with “study.” for “study. The animal was rested a minimum of one week before starting the study.”, “receive 3.0” for “receive 1.5”, “0 measurements,” for “0 measurement,”, “animal was administered 3.0” for “animal received 1.5”, “eye using” for “eye with”, “spray ejector” for “spray”
All animals were rested for a minimum of one week before starting the trials. IOP and pupil diameter (PD) were measured 5 times (at 0, 1, 2, 4, and 7 hours) daily for four days (study days 1-4) to establish initial baseline levels. The basic measurement protocol was followed at all times and performed by the same operator. PD was measured via Jameson Caliper (mm horizontally). IOP was measured with a TonoVet instrument with clean probe (iCare). After three rest days, one eye was randomly assigned to receive 9 μl of 0.005% latanoprost delivered via a spray ejector device, and the contralateral eye was administered traditional latanoprost from a traditional eyedropper container (26-30 μl).
On study days 5-9, IOP and PD measurements were taken at approximately 0900 h (time 0). Immediately after time 0 measurements, each animal received a once-daily dose of 9 μl of generic 0.005% latanoprost in its assigned eye via the spray ejector device. […]

Data set [2] has as its system glaucomatous beagles. Set-up: species or system beagle dog. The following applies: dog, in vivo. The method, then:
All animals are rested a minimum of one week before starting the trials. Intraocular pressure (IOP), pupil diameter (PD), and heart rate (HR) are measured 6 times (at 0, 0:30, 0:45, 1, 2, 7 hrs) daily for five days, for initial baseline levels (Study days 1-5). The basic measurement protocol is followed and performed by the operator. PD is measured via Jameson Caliper (mm horizontally). IOP is measured with a TonoVet instrument with clean probe (iCare). HR is monitored via palpation of the femoral vessels. After two rest days, one eye is randomly assigned to receive the drug delivered via the ejector device and the contralateral eye is given traditional latanoprost from an eye dropper container.
All animals were rested a minimum of one week before starting the trials. Intraocular pressure (IOP), pupil diameter (PD), and heart rate (HR) were measured daily at time 0, 12, 13, 14, 16, and 19 hours for five days starting at approximately 2100 h to establish initial baseline levels (study days 1-5). […] PD was measured via Jameson Caliper (mm horizontally). IOP was measured using a TonoVet instrument with clean probe (iCare). HR was monitored via palpation of the femoral vessels. […]
Following a 7 day rest period, the eye choice was reversed. […] A veterinary ophthalmologist evaluated each test subject before and after the study for evidence of ocular side effects. […]

On to `CC(C)OC(=O)CCC/C=C\C[C@@H]1[C@@H](CC[C@@H](O)CCc2ccccc2)[C@H](O)C[C@@H]1O` [latanoprost], for which the PD was found to be 0 mm in data set [1] (1.5 μl of 0.005%, by hour 1 through hour 7) and 0 mm in data set [1] (3.0 μl of 0.005%, by hour 1 throughout hour 7). In data set [1] (one drop of 0.005% by eyedropper), the “time to return to normal PD” value is not above 24 h. The “time at which the iris reached pinpoint status” value in data set [1] (traditional treatment, one drop by eyedropper, remained for the seven hours of monitoring) is 1 h. For the same compound, the “time at which the iris reached pinpoint status (maximum miosis)” value in data set [1] (two 6 μl doses via ejector device, remained for the seven hours of monitoring) is 1 h.
As to `CC(C)OC(=O)CCC/C=C\C[C@@H]1[C@@H](/C=C/[C@@H](O)COc2cccc(C(F)(F)F)c2)[C@H](O)C[C@@H]1O` [travoprost], in data set [2], the “changes in HR” value is recorded as “no changes in HR”.
